Experimental data: patent US12077503B2, “Substituted cyclic amides and their use as herbicides” (FMC CORPORATION, priority 2015, dated 2024)

What was measured:
Type in all cases: in vivo
Kochia (Kochia scoparia) [1] = assay: Test A preemergence; conditions: Bassia scoparia, pre-emergence, 240 h, 0 to 100 scale where 0 is no effect and 100 is complete control, read-out: Kochia plant response rating
In short: (§1)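 Treatment is preemergence as a directed soil spray after planting, or postemergence at the one- to two-leaf stage, with test chemical in a non-phytotoxic solvent mixture plus surfactant. Plants stay in the greenhouse about 10 d before visual injury scoring on a 0 to 100 scale versus untreated controls.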

[2] = test system: barnyardgrass (Echinochloa crus-galli); assay: Test A preemergence; conditions: Echinochloa crus-galli, pre-emergence, 240 h, 0 to 100 scale where 0 is no effect and 100 is complete control, read-out: Barnyardgrass plant response rating
In short: as §1

[3] = test system: giant foxtail (Setaria faberii); assay: Test A preemergence; conditions: Setaria faberi, pre-emergence, 240 h, 0 to 100 scale where 0 is no effect and 100 is complete control, read-out: Foxtail, Giant plant response rating
In short: as §1

[4] = test system: pigweed (Amaranthus retroflexus); assay: Test A preemergence; conditions: Amaranthus retroflexus, pre-emergence, 240 h, 0 to 100 scale where 0 is no effect and 100 is complete control, read-out: Pigweed plant response rating
[5] = test system: ragweed (common ragweed, Ambrosia elatior); assay: Test A preemergence; conditions: Ambrosia artemisiifolia, pre-emergence, 240 h, 0 to 100 scale where 0 is no effect and 100 is complete control, read-out: Ragweed plant response rating
In short: as §1

[6] = test system: ryegrass, Italian (Italian ryegrass, Lolium multiflorum); assay: Test A preemergence; conditions: Lolium multiflorum, pre-emergence, 240 h, 0 to 100 scale where 0 is no effect and 100 is complete control, read-out: Ryegrass, Italian plant response rating
In short: as §1

[7] = test system: Galium (catchweed bedstraw, Galium aparine); assay: Test A postemergence; conditions: Galium, post-emergence, 240 h, Postemergence, read-out: Galium plant response rating (0 to 100 scale)
In short: as §1

Kochia (Kochia scoparia) [8] = assay: Test A postemergence; conditions: Bassia scoparia, post-emergence, 240 h, Postemergence, read-out: Kochia plant response rating (0 to 100 scale)
In short: as §1

[9] = test system: barnyardgrass (Echinochloa crus-galli); assay: Test A postemergence; conditions: Echinochloa crus-galli, post-emergence, 240 h, Postemergence
In short: as §1

[10] = test system: blackgrass (Alopecurus myosuroides); assay: Test A postemergence; conditions: Alopecurus myosuroides, post-emergence, 240 h, Postemergence, read-out: Blackgrass plant response rating (0 to 100 scale)
In short: as §1

corn (Zea mays) = assay: Test A postemergence; conditions: Zea mays, post-emergence, 240 h, Postemergence, read-out: Corn plant response rating (0 to 100 scale)
In short: as §1

[11] = test system: giant foxtail (Setaria faberii); assay: Test A postemergence; conditions: Setaria faberi, post-emergence, 240 h, Postemergence, read-out: Foxtail, Giant plant response rating (0 to 100 scale)
In short: as §1

[12] = test system: pigweed (Amaranthus retroflexus); assay: Test A postemergence; conditions: Amaranthus retroflexus, post-emergence, 240 h, Postemergence, read-out: Pigweed plant response rating (0 to 100 scale)
In short: as §1

[13] = test system: ragweed (common ragweed, Ambrosia elatior); assay: Test A postemergence; conditions: Ambrosia artemisiifolia, post-emergence, 240 h, Postemergence, read-out: Ragweed plant response rating (0 to 100 scale)
In short: as §1

[14] = test system: ryegrass, Italian (Italian ryegrass, Lolium multiflorum); assay: Test A postemergence; conditions: Lolium multiflorum, post-emergence, 240 h, Postemergence, read-out: Ryegrass, Italian plant response rating (0 to 100 scale)
In short: as §1

[15] = test system: wheat (Triticum aestivum); assay: Test A postemergence; conditions: Triticum aestivum, post-emergence, 240 h, Postemergence, read-out: Wheat plant response rating (0 to 100 scale)
In short: as §1

[16] = test system: barnyardgrass (Echinochloa crus-galli); assay: Test B flooded paddy test; conditions: Echinochloa crus-galli, 250 g ai/ha, Flood; 0 to 100 scale where 0 is no effect and 100 is complete control; read-out: Barnyardgrass plant response rating
In short: (§2)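 Rating scale 0–100 (visual, vs untreated controls) after a 13–15 d greenhouse period; application to the flood layer, 3 cm above soil and maintained; plants at 2-leaf stage when treated.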

[17] = test system: ducksalad (Heteranthera limosa); assay: Test B flooded paddy test; conditions: Heteranthera limosa, 250 g ai/ha, Flood; 0 to 100 scale where 0 is no effect and 100 is complete control; read-out: Ducksalad plant response rating
In short: as §2

rice (Oryra sativa) = assay: Test B flooded paddy test; conditions: Oryza sativa, 250 g ai/ha, Flood; 0 to 100 scale where 0 is no effect and 100 is complete control; read-out: Rice plant response rating
In short: as §2

[18] = test system: sedge, umbrella (small-flower umbrella sedge, Cyperus difformis); assay: Test B flooded paddy test; conditions: Cyperus difformis, 250 g ai/ha, Flood; 0 to 100 scale where 0 is no effect and 100 is complete control; read-out: Sedge, Umbrella plant response rating
In short: as §2

[19] = 125 g ai/ha, preemergence, visual injury rating, approximately 10 d
[20] = 125 g ai/ha, visual rating about 10 d after treatment
[21] = 31 g ai/ha, 0 is no effect, 100 is complete control

Q: Which results are given for `CN1C[C@H](c2ccc(C(F)F)cc2)[C@@H](C(=O)Nc2cccnc2F)C1=O` [Compound 1274]?
A: pest or weed control at 31 g/ha (Kochia (Kochia scoparia) [1]; 31 g ai/ha, Preemergence): 30%; pest or weed control at 125 g/ha (Kochia (Kochia scoparia) [1]; [19]): 70%; pest or weed control at 31 g/ha ([2]; 31 g ai/ha, Preemergence): 30%; pest or weed control at 125 g/ha [2, 19]: 90%; pest or weed control at 31 g/ha ([3]; 31 g ai/ha, Preemergence): 80%; pest or weed control at 125 g/ha [3, 19]: 90%; pest or weed control at 31 g/ha ([4]; 31 g ai/ha, Preemergence): 30%; pest or weed control at 125 g/ha [4, 19]: 70%; pest or weed control at 31 g/ha ([5]; 31 g ai/ha, Preemergence): 20%; pest or weed control at 125 g/ha [5, 19]: 80%; pest or weed control at 31 g/ha ([6]; 31 g ai/ha, Preemergence): 0%; pest or weed control at 125 g/ha [6, 19]: 20%; pest or weed control at 125 g/ha [7, 20]: 60%; pest or weed control at 31 g/ha [7, 21]: 50%; pest or weed control at 125 g/ha (Kochia (Kochia scoparia) [8]; [20]): 70%; pest or weed control at 31 g/ha (Kochia (Kochia scoparia) [8]; [21]): 50%; pest or weed control at 125 g/ha ([9]; 125 g ai/ha, visual rating about 10 d after treatment, read-out: Barnyardgrass plant response rating (0 to 100 scale, 0 no effect, 100 complete control)): 90%; pest or weed control at 31 g/ha ([9]; 31 g ai/ha, 0 is no effect, 100 is complete control, read-out: Barnyardgrass plant response rating (0 to 100 scale)): 50%; pest or weed control at 125 g/ha [10, 20]: 30%; pest or weed control at 31 g/ha [10, 21]: 0%; plant injury at 125 g/ha (corn (Zea mays); [20]): 30%; plant injury at 31 g/ha (corn (Zea mays); [21]): 30%; pest or weed control at 125 g/ha [11, 20]: 90%; pest or weed control at 31 g/ha [11, 21]: 50%; pest or weed control at 125 g/ha [12, 20]: 20%; pest or weed control at 31 g/ha [12, 21]: 0%; pest or weed control at 125 g/ha [13, 20]: 30%; pest or weed control at 31 g/ha [13, 21]: 0%; pest or weed control at 125 g/ha [14, 20]: 20%; pest or weed control at 31 g/ha [14, 21]: 0%; plant injury at 125 g/ha [15, 20]: 60%; plant injury at 31 g/ha [15, 21]: 20%; pest or weed control at 250 g/ha [16]: 20%; pest or weed control at 250 g/ha [17]: 100%; pest or weed control at 250 g/ha (rice (Oryra sativa)): 0%; pest or weed control at 250 g/ha [18]: 0%
